From US8822449B2, “Substituted aminoindanes and analogs thereof, and the pharmaceutical use thereof” (Sanofi, priority 2008, dated 2014) come the findings set out here.

pIC50: −log10 of the molar value. Read-outs that look alike come from different tables or passages of the source.

The test deals with T1, sodium-proton exchanger of subtype 3 (NHE3) (Homo sapiens, UniProt P48764).
T1 construct: expressed in transfected cells
T1 sequence (P48764 26-834): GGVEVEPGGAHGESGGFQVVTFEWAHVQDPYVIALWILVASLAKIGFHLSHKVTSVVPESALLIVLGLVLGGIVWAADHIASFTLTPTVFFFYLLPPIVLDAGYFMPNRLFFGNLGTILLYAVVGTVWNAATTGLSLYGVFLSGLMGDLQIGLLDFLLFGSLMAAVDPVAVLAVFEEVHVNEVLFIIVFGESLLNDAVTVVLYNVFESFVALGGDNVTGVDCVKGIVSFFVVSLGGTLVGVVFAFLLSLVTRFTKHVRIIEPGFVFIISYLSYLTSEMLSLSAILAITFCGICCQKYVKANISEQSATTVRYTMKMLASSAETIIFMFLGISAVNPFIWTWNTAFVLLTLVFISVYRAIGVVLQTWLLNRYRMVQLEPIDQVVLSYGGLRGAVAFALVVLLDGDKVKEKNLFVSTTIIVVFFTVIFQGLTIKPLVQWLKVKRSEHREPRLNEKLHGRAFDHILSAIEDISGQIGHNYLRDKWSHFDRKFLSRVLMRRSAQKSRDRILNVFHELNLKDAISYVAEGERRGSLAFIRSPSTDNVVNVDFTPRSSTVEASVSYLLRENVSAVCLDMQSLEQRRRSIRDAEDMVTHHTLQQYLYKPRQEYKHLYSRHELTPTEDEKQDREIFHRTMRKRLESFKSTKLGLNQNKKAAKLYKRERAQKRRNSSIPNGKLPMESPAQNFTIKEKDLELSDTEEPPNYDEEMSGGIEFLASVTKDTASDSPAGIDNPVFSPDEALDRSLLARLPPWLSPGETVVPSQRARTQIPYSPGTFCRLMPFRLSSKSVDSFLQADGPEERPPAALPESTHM
The experiment in a line: Recovery of intracellular pH (pHi) after acidification in LAP1 cells stably expressing NHE3 (BCECF fluorescence, FLIPR). The test is classed as cell-based. Conditions: LAP1 cells stably expressing NHE3, pH recovery after acidification, range 1 is % inhibition at 10 μM.

The mark [1] stands for this setting: read-out: Activity range (inhibitory effect on NHE3).

`CN(C)C1Cc2ccccc2C1Oc1ccc(S(N)(=O)=O)c(Cl)c1Cl` (racemic) [Example 356, 2,3-dichloro-4-(rac-trans-(1,2)-2-dimethylaminoindan-1-yloxy)benzenesulfonamide]: under setting [1], the pIC50 was more than 6.00. Regarding `Cc1ccc(O[C@H]2c3ccccc3CC[C@@H]2N2CCC[C@H](N)C2)c(Cl)c1` (racemic) [Example 152, (S)-1-[rac-trans-(1,2)-1-(2-chloro-4-methylphenoxy)-1,2,3,4-tetrahydronaphthalen-2-yl]piperidin-3-ylamine], the inhibition at 10 µM under setting [1] lay in the range of 20 to 50%. Take `Cc1cc(-n2c(C)nnc2C)ccc1O[C@H]1c2cc(Cl)cc(Cl)c2C[C@@H]1N1CC[C@@H](O)C1` [Example 131, (R)-1-{trans-(1S,2S)-4,6-dichloro-1-[4-(3,5-dimethyl-[1,2,4]triazol-4-yl)-2-methylphenoxy]indan-2-yl}pyrrolidin-3-ol]: the pIC50 under setting [1] was more than 6.00. For `N[C@H]1CCCN([C@H]2CCc3ccccc3[C@@H]2Oc2ccc(F)cc2-c2ccno2)C1` (racemic) [Example 178, (S)-1-[rac-trans-(1,2)-1-(4-fluoro-2-isoxazol-5-ylphenoxy)-1,2,3,4-tetrahydronaphthalen-2-yl]piperidin-3-ylamine], the inhibition at 10 µM under setting [1] was in the range of 20 to 50%. The same measure, in the same setting: the same measure for `N[C@@H]1CCCN([C@H]2CCc3ccccc3[C@@H]2Oc2cccc(OC(F)F)c2)C1` (racemic) [Example 56, (R)-1-[rac-trans-(1,2)-1-(3-difluoromethoxyphenoxy)-1,2,3,4-tetrahydronaphthalen-2-yl]piperidin-3-ylamine]: 20 to 50%. For `CS(=O)(=O)c1ccc(O[C@H]2c3cc(Cl)cc(Cl)c3C[C@@H]2N2C[C@H]3CNC[C@H]3C2)cc1` [Example 3, 2-[trans-(1S,2S)-4,6-dichloro-1-(4-methanesulfonylphenoxy)indan-2-yl]octahydropyrrolo[3,4-c]pyrrole], the pIC50 under setting [1] was more than 6.00. Same read-out and setting: the same measure for `NCC1CCN([C@@H]2Cc3ccccc3[C@H]2Oc2ccc(-n3cncn3)cc2)C1` (mixture of isomers) [Example 618, C-{1-[rac-trans-(1,2)-1-(4-[1,2,4]triazol-1-ylphenoxy)indan-2-yl]pyrrolidin-3-yl}methylamine]: 5.00 to 6.00.

As to `N[C@H]1CCCN([C@H]2CCc3ccccc3[C@@H]2Oc2ccccc2N2CCOCC2)C1` (racemic) [Example 158, (S)-1-[rac-trans-(1,2)-1-(2-morpholin-4-ylphenoxy)-1,2,3,4-tetrahydronaphthalen-2-yl]piperidin-3-ylamine], the inhibition at 10 µM under setting [1] lay within 20 to 50%.

On to `Cc1nnc(C)n1-c1ccc(O[C@H]2c3cc(Cl)cc(F)c3C[C@@H]2NC2CCCC2)c(F)c1` [Example 749, {trans-(1S,2S)-6-Chloro-1-[4-(3,5-dimethyl-[1,2,4]triazol-4-yl)-2-fluoro-phenoxy]-4-fluoro-indan-2-yl}-cyclopentyl-amine], for which the pIC50 under setting [1] was 5.00 to 6.00. Take `CC1(C)NC(=O)N(c2ccc(O[C@H]3c4cc(Cl)cc(Cl)c4C[C@@H]3N3CC[C@@H](O)C3)c(Cl)c2)C1=O` [Example 423, 3-{3-chloro-4-[(1S,2S)-4,6-dichloro-2-((R)-3-hydroxypyrrolidin-1-yl)indan-1-yloxy]phenyl}-5,5-dimethylimidazolidine-2,4-dione]: the pIC50 under setting [1] was 5.00 to 6.00. Still for that read-out and setting: the same measure for `CN1CCCN([C@H]2Cc3c(Cl)cc(Cl)cc3[C@@H]2Oc2ccc(S(C)(=O)=O)cc2)CC1` (racemic) [Example 279, 1-[rac-trans-(1,2)-4,6-dichloro-1-(4-methanesulfonylphenoxy)indan-2-yl]-4-methyl-[1,4]diazepane]: more than 6.00. Consider `N#Cc1ccc(O[C@H]2c3ccccc3C[C@@H]2N2CCCC2)cc1Cl` (racemic) [Example 392, 2-chloro-4-(rac-trans-(1,2)-2-pyrrolidin-1-ylindan-1-yloxy)benzonitrile], for which the pIC50 (Activity range (inhibitory effect on NHE3)) is 5.00 to 6.00. Take `N#Cc1ccc(O[C@H]2c3ccccc3CC[C@@H]2N2CCC[C@@H](N)C2)cc1F` (racemic) [Example 510, 4-[rac-trans-(1,2)-2-((R)-3-aminopiperidin-1-yl)-1,2,3,4-tetrahydronaphthalen-1-yloxy]-2-fluorobenzonitrile]: under setting [1], the pIC50 was more than 6.00. Regarding `CCc1ccc(O[C@@H]2c3ccccc3C[C@H]2N2CCC(N)C2)c(C(C)(C)C)c1` (mixture of isomers) [Example 267, 1-[rac-trans-(1,2)-1-(2-tert-butyl-4-ethylphenoxy)indan-2-yl]pyrrolidin-3-ylamine], the pIC50 under setting [1] was 5.00 to 6.00. In the case of `CS(=O)(=O)c1ccc(O[C@@H]2c3ccccc3C[C@@H]2n2ccnc2)cc1` (racemic) [Example 261, 1-[rac-cis-(1,2)-1-(4-methanesulfonylphenoxy)indan-2-yl]-1H-imidazole], the inhibition at 10 µM under setting [1] fell in the range of 20 to 50%. On to `N[C@@H]1CCCN([C@H]2Cc3c(Cl)cc(Cl)cc3[C@@H]2Oc2ccc(F)c3cccnc23)C1` [Example 27, (R)-1-[(1S,2S)-4,6-dichloro-1-(5-fluoroquinolin-8-yloxy)indan-2-yl]piperidin-3-ylamine], for which the pIC50 under setting [1] is more than 6.00. In the case of `N[C@@H]1CCCN([C@H]2CCc3ccccc3[C@@H]2Oc2ccc(C(F)(F)F)cc2)C1` (racemic) [Example 77, (R)-1-[rac-trans-(1,2)-1-(4-trifluoromethylphenoxy)-1,2,3,4-tetrahydronaphthalen-2-yl]piperidin-3-ylamine], the inhibition at 10 µM under setting [1] is 20 to 50%. Same read-out and setting: the same measure for `c1ccc2c(c1)CC[C@H](N1CCOCC1)[C@H]2Oc1cnc2ccccc2c1` (racemic) [Example 400, 3-(rac-trans-(1,2)-2-morpholin-4-yl-1,2,3,4-tetrahydronaphthalen-1-yloxy)quinoline]: 20 to 50%. On to `Cc1nnc(C)n1-c1ccc(O[C@H]2c3cc(Cl)cc(Cl)c3C[C@@H]2N2CCCN(C)CC2)c(Cl)c1` [Example 345, 1-{trans-(1S,2S)-4,6-dichloro-1-[2-chloro-4-(3,5-dimethyl-[1,2,4]triazol-4-yl)phenoxy]indan-2-yl}-4-methyl-[1,4]diazepane], for which the pIC50 under setting [1] is more than 6.00.

Take `Cc1ccc(F)c(O[C@H]2c3ccccc3CC[C@@H]2N2CCC[C@@H](N)C2)c1` (racemic) [Example 43, (R)-1-[rac-trans-(1,2)-1-(2-fluoro-5-methylphenoxy)-1,2,3,4-tetrahydronaphthalen-2-yl]piperidin-3-ylamine]: the inhibition at 10 µM under setting [1] lay in the range of 20 to 50%.

As to `CC(=O)Nc1cccc(O[C@@H]2c3cc(Cl)cc(F)c3C[C@H]2N2CCC[C@@H](N)C2)c1` (racemic) [Example 678, N-{3-[rac-trans-(1,2)-2-((R)-3-aminopiperidin-1-yl)-6-chloro-4-fluoroindan-1-yloxy]phenyl}acetamide], the pIC50 under setting [1] is more than 6.00. The same measure, in the same setting: the value for `Cc1nnc(C)n1-c1ccc(O[C@H]2c3cc(Cl)cc(Cl)c3C[C@@H]2N2CC[C@@H](C#N)C2)cc1` [Example 134, (R)-1-{trans-(1S,2S)-4,6-dichloro-1-[4-(3,5-dimethyl-[1,2,4]triazol-4-yl)phenoxy]indan-2-yl}pyrrolidine-3-carbonitrile] was more than 6.00. The same measure, in the same setting: the same measure for `O=C1OCCN1c1ccc(Cl)c(O[C@H]2c3cc(Cl)cc(Cl)c3C[C@@H]2N2CC[C@@H](O)C2)c1` [Example 434, 3-{4-chloro-3-[(1S,2S)-4,6-dichloro-2-((R)-3-hydroxypyrrolidin-1-yl)indan-1-yloxy]phenyl}oxazolidin-2-one]: more than 6.00; for `NS(=O)(=O)c1ccc(O[C@H]2c3ccccc3C[C@@H]2N2CC[C@@H](CO)C2)cc1` (racemic) [Example 526, 4-[rac-trans-(1,2)-2-((R)-3-Hydroxymethylpyrrolidin-1-yl)indan-1-yloxy]benzenesulfonamide]: 5.00 to 6.00; for `Cn1ccn(-c2ccc(Cl)c(O[C@H]3c4cc(Cl)cc(F)c4C[C@@H]3N3CC[C@@H](O)C3)c2)c1=O` [Example 339, 1-{4-chloro-3-[(1S,2S)-6-chloro-4-fluoro-2-((R)-3-hydroxypyrrolidin-1-yl)indan-1-yloxy]phenyl}-3-methyl-1,3-dihydroimidazol-2-one]: more than 6.00. Regarding `COCCc1ccc(O[C@@H]2c3ccccc3C[C@H]2N2CCC[C@@H](N)C2)cc1` (racemic) [Example 116, (R)-1-{rac-trans-(1,2)-1-[4-(2-methoxyethyl)phenoxy]indan-2-yl}piperidin-3-ylamine], the pIC50 under setting [1] is 5.00 to 6.00.

In the case of `N[C@@H]1CCCN([C@@H]2Cc3c(Cl)cc(Cl)cc3[C@H]2Oc2ccccc2)C1` [Example 23, (R)-1-(trans-(1R,2R)-4,6-dichloro-1-phenoxyindan-2-yl)piperidin-3-ylamine], the pIC50 under setting [1] is 5.00 to 6.00. The same measure, in the same setting: the same measure for `NC(=O)c1cc(Cl)ccc1O[C@H]1c2ccccc2CC[C@@H]1N1CCC[C@H](N)C1` (racemic) [Example 370, 2-[rac-trans-(1,2)-2-((S)-3-aminopiperidin-1-yl)-1,2,3,4-tetrahydronaphthalen-1-yloxy]-5-chlorobenzamide]: more than 6.00.
